Key:
Mutant TERT = test: HepG2 hTERT mRNA assay (qPCR); type: cell-based, human; conditions: Homo sapiens; HepG2 cells (mutated TERT), 48 hours, TERT mRNA via qPCR
Procedure, shortened: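 HepG2 (mutant TERT) or HEK293T (wt TERT) cells treated 48 h with compound (25 uM down to 0.098 uM, twofold steps) or 0.1% DMSO, in triplicate. TERT mRNA measured by qPCR on 500 ng cDNA, normalized to GUSB, as fold change versus vehicle by delta CT.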

wt TERT = test: HEK293T hTERT mRNA assay (qPCR); type: cell-based, human; conditions: HEK293 cells (wt TERT), 48 hours, class symbols
Method: HepG2 cells (hepatocyte carcinoma (HCC) cells; with mutated TERT) or HEK293T cells (with wild type (wt) TERT) were seeded at 4,000 cells/well in 96-well plates. The following day, test compounds were added to cells for at concentrations of 25 uM, 12.5 uM, 6.25 uM, 3.125 uM, 1.563 uM, 0.781 uM, 0.391 uM, 0.195 uM, 0.098 uM or vehicle control (0.1% DMSO). Each condition was tested in three replicate wells. 48 hours post drug addition, the cells were harvested for RNA using the 96-Magmax RNA Isolation kit (Cat. No. AM1830). RNA was converted to cDNA using the Superscript III First strand cDNA synthesis kit (Cat. No. 18080051). RNA and cDNA concentration and quality were determined using the NanoQuant nucleic acid quantification method. 500 ng cDNA from each sample was used to detect TERT mRNA via qPCR. GUSB was also measured as an internal control and fold change to vehicle control was determined using the delta CT method.

[1] = system: GBM39 orthotopic xenograft; test: GBM39 orthotopic xenograft, tumor BLI; type: in vivo, mice; conditions: for tumor BLI change: 5 days
Method: (§1) In this study, Compound 101 was dosed twice daily (BID) via oral gavage to mice with GBM39 orthotopic xenograft (GBM39 cells). Tumor size was measured via Bioluminescence imaging (BLI). BLI readings were taken on treatment day 1 and day 5. Tumors were also harvested for downstream RNA analysis.
(§2) For each dose group (N=6), the following steps were performed. Briefly, athymic nu/nu mice were injected intracranially with patient-derived Glioblastoma cells. Animals began treatment once tumor BLI levels reach the range of 1×10^8-5×10^8. A dosing solution of Compound 101 (50 mg/kd, 100 mg/kd, or 200 mg/kg) or vehicle were administered by oral gavage (P.O., 50-100 uL volume) for 5 days. The dosing solutions were prepared similar to the process in Example 4. Dosing was twice daily on days 1-4. On day 5 the mice received a single dose, prior to harvest. Three hours after the last dose, mice were sacrificed and their brains were harvested and processed for analysis. […] TERT expression was also found to be reduced in all three dose groups (FIG. 3).
In a second study with Compound 101 in the GBM mice model, the 200 mg/kg dosing group was changed to a 100 mg/kg once daily dosing (QD). The baseline BLI readings were taken two days prior to 1st treatment.

TERT [2] = test: TERT expression in GBM39 orthotopic xenograft tumors; type: in vivo, mice; conditions: 50, 100 or 200 mg/kg BID, oral gavage, 5 days, FIG. 3
Method: as §1, §2

[3] = system: HepG2 subcutaneous tumor xenograft; test: HepG2 subcutaneous tumor xenograft, tumor volume; type: in vivo, mice; conditions: for Mean Tumor Volume: p.o, BID for 5 days
Method: The pharmacodynamic (PD) profiling of Compound 101 was determined in Athymic nude mice bearing subcutaneous tumor xenograft model.
(§3) HepG2 (Hepatocellular carcinoma cell line containing the C228T TERTp mutation) cells were implanted into the flanks of Athymic Nude-Foxn1nu mice. Once tumors reached 250-300 mm3 in size as measured by caliper, treatment of Compound 101 was initiated. Compound 101 was administered orally (P.O.) for 5 days BID at either 25 mg/kg, 50 mg/kg, or vehicle control (N=4 per group). Body weight and tumor size were measured on days 1, 3, and 5. Two hours after final dose administration, mice were sacrificed, and tumors extracted for RNA isolation and TERT mRNA expression analysis via RT-qPCR. Both TERT and GUSB were measured using SYBR green primers and relative TERT levels were analyzed using the delta delta CT method.

TERT [4] = test: TERT mRNA expression (RT-qPCR) in HepG2 xenograft tumors; type: in vivo, mice; conditions: for TERT Expression (RT-qPCR) Mean Fold: p.o, BID for 5 days
Method: as §3

[5] = Body weight in HepG2 xenograft mice; type: in vivo; conditions: p.o, BID for 5 days
Method: as §3

[6] = system: GBM39 cells orthotopic xenograft; test: GBM orthotopic xenograft survival study; type: in vivo, mice; conditions: oral gavage, 14 days of dosing
Method: GBM39 cells, a human PDX model of GBM, were selected for this study. GBM39 cells were stably transduced (MOI=3) with Firefly Luciferase Lentifect Purified Lentiviral Particles (Genecopoiea, #LPP-FLUC-Lv105) and were verified to be expressing luciferase stably and at similar levels 48 h pre-xenograft. A total of 1-4×10E4 luciferase-expressing PDX cells in 4 uL volume were injected into the right frontal cortex of athymic nu/nu mice (6-7-wk.-old, female). Animals were randomized into treatment groups and dosing initiated once tumors reach an average BLI of 1×10^8.
(§4) For this study, treatment began on day 7 post tumor cell implant and ceased on day 20 for a total of 14 days of dosing. Compound 101 was formulated with Solutol, DMSO and water and administered by oral gavage twice daily (BID). The dosage groups were vehicle control, 50 mg/kg BID, 25 mg/kg BID, and 10 mg/kg BID. […] Tumor size was monitored following injection of luciferin (150 mg/kg i.p.) 1-2 times weekly by bioluminescence imaging (Xenogen IVIS Spectrum Imaging System). Animals were weighed three times per week, and daily after initial weight loss is observed.

[7] = Body weight in GBM orthotopic xenograft survival study; type: in vivo, mice; conditions: highest dosage group (50 mg/kg BID), first 3 dosing days
Method: as §4

[8] = oral, 25 mg/kg and 50 mg/kg BID, 5 days (both dose levels)

Question: Which IC50 (Mutant TERT) does the source give for `O=C(O)C[C@@H]1C[C@@H](c2ccc(C(F)(F)F)cc2)CN(Cc2ccc(C(F)(F)F)cc2)C1` [Compound 101, 2-((3S,5S)-1-(4-(trifluoromethyl)benzyl)-5-(4-(trifluoromethyl)phenyl)piperidin-3-yl)acetic acid] here?
Answer: The IC50 was < 500 nM.

Question: And the “wt TERT IC50 uM HEK293” value (wt TERT)?
Answer: Its value is ““++”-IA”.

Question: And the “tumor BLI change” value ([1]; 50, 100 or 200 mg/kg BID, oral gavage, FIG. 2)?
Answer: Its value is “significant tumor reduction”.

Question: What about the tumor size ([1]; second study, 100 mg/kg once daily dosing (QD)) of the same compound?
Answer: Its tumor size is “sufficient to reduce tumor size”.

Question: And the “tumor BLI change” value ([1]; second study: 50 mg/kg BID, 100 mg/kg BID or 100 mg/kg QD, FIG. 4)?
Answer: The value was “significant tumor reduction”.

Question: And the “TERT expression in tumor” value (TERT [2])?
Answer: Its value is “reduced”.

Question: And the “Mean Tumor Volume” value ([3]; 25 mg/kg, Day 1)?
Answer: The value was 252.22 mm3.

Question: And the “Mean Tumor Volume” value ([3]; 25 mg/kg, Day 3)?
Answer: The value was 230.02 mm3.

Question: What about the “Mean Tumor Volume” value ([3]; 25 mg/kg, Day 5) of the same compound?
Answer: Its value is 197.97 mm3.

Question: And the “Mean Tumor Volume” value ([3]; 50 mg/kg, Day 1)?
Answer: Its value is 251.37 mm3.

Question: What about the “Mean Tumor Volume” value ([3]; 50 mg/kg, Day 3) of the same compound?
Answer: Its value is 212.58 mm3.

Question: What about the “Mean Tumor Volume” value ([3]; 50 mg/kg, Day 5) of the same compound?
Answer: Its value is 168.34 mm3.

Question: What about the tumor volume change [3, 8] of the same compound?
Answer: The tumor volume change was “tumor regression”.

Question: And the “TERT Expression (RT-qPCR) Mean Fold” value (TERT [4]; 25 mg/kg)?
Answer: The value was 0.21 Fold.

Question: And the “TERT Expression (RT-qPCR) Mean Fold” value (TERT [4]; 50 mg/kg)?
Answer: The value was 0.19 Fold.

Question: What about the “TERT mRNA in tumor” value (TERT [4]; [8]) of the same compound?
Answer: Its value is “TERT mRNA reduction”.

Question: What about the “% Mean body weight change” value ([5]; 25 mg/kg, DAY 1) of the same compound?
Answer: Its value is 0%.

Question: And the “% Mean body weight change” value ([5]; 25 mg/kg, DAY 3)?
Answer: The value was −4.36%.

Question: What about the “% Mean body weight change” value ([5]; 25 mg/kg, DAY 5) of the same compound?
Answer: Its value is −3.65%.

Question: What about the “% Mean body weight change” value ([5]; 50 mg/kg, DAY 1) of the same compound?
Answer: Its value is 0%.

Question: And the “% Mean body weight change” value ([5]; 50 mg/kg, DAY 3)?
Answer: Its value is −11.09%.

Question: And the “% Mean body weight change” value ([5]; 50 mg/kg, DAY 5)?
Answer: The value was −10.68%.

Question: And the “Median Survival” value ([6]; 20 mg/kg/day, bid (n = 10))?
Answer: The value was 50.

Question: And the “Median Survival” value ([6]; 50 mg/kg/day, bid (n = 10))?
Answer: Its value is 62.5.

Question: What about the “Median Survival” value ([6]; 100 mg/kg/day, bid × 3 days, then 50 mg/kg/day, qd (n = 9)) of the same compound?
Answer: Its value is “Undefined”.

Question: And the body weight [7]?
Answer: The body weight was “mice losing weight”.
